In publication PMC4061319 (Biotechnology for Biofuels, 2014):

Legend:
[1] = target: T1, SdCBP (cellobiose phosphorylase from Saccharophagus degradans) (Saccharophagus degradans, UniProt Q21L49); assay: competition assay of cellobiose phosphorolysis at […] xylose; format: biochemical; conditions: mixed inhibitor versus cellobiose; 5 mM inorganic phosphate, 20 mM MES pH 6.0, 30°C
T1 construct: gene cep94A; CBP is a homodimer

[2] = target: T1, SdCBP (cellobiose phosphorylase from Saccharophagus degradans); assay: initial rates of phosphorolysis from continuous G1P colorimetric assay, non-linear regression; format: biochemical; conditions: no xylose; 5 mM inorganic phosphate, 20 mM MES pH 6.0, 30°C, 10 nM enzyme

T1 sequence (Q21L49 entry or part of it): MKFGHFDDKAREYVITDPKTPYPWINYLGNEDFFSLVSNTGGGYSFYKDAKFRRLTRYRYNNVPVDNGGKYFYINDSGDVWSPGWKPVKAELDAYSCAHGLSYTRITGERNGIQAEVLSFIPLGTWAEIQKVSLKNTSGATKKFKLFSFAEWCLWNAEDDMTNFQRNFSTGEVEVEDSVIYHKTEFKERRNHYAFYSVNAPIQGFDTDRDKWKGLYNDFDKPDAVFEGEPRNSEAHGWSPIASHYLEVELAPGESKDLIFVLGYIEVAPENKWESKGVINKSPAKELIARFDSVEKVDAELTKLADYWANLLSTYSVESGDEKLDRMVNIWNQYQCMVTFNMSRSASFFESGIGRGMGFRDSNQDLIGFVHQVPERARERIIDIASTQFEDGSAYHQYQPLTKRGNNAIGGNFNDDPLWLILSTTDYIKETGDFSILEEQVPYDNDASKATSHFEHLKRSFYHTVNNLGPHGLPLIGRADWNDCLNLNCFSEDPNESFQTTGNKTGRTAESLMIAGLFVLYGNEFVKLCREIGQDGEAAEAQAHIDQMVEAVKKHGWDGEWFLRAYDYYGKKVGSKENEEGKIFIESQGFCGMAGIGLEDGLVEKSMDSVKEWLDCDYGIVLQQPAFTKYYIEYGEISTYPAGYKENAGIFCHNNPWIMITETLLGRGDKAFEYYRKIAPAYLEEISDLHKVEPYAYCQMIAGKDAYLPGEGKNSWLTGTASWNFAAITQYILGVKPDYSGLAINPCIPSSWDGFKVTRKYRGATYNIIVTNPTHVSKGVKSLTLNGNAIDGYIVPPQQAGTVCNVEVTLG

| SMILES | competition assay of cellobiose phosphorolysis at 0, 2.5 and 5 mM xylose [1] | KM,app [2] |
| --- | --- | --- |
| OC1OC[C@@H](O)[C@H](O)[C@H]1O (some centres unmarked) [xylose] | identifying xylose as a mixed-inhibitor for the cellobiose phosphorolysis reaction |  |
| OC[C@H]1O[C@@H](O[C@H]2[C@H](O)[C@@H](O)C(O)O[C@@H]2CO)[C@H](O)[C@@H](O)[C@@H]1O (some centres unmarked) [cellobiose] |  | Initial rates of cellobiose phosphorolysis were calculated from the amount of G1P produced |
